# Experimental data reported in patent publication US9096538B2, “Pharmaceutical comprising PPAR agonist” (Senju Pharmaceutical Co., Ltd., priority 2005, dated 2015).
# Experiments:
# corneal epithelial wound = test: Test Example 9: healing of corneal epithelial wound after corneal epithelium scraping, eyedrop; assay type: in vivo, rabbit; conditions: 0.05% eyedrop; for ratio (%) of remaining corneal epithelial defect: initial value = 100%, average ± standard deviation, N = 4
# Text: A male rabbit (Japanese white, […] LABES Co., Ltd.) was used. The experimental animal was used according to the International Guiding Principles for Biomedical Research Involving Animals.
# As the test substance, a PPARδ agonist GW-501516 (Alexis Biochemicals) was used. A solution in which GW-501516 was suspended in the following vehicle to 0.05% was used as an eyedrop solution.
# As a control for the test substance administration group, the aforementioned vehicle administration group containing no drug was set.
# After the animal was subjected to systemic anesthesia by intramuscular injection (0.9 mL/kg) with a selactar (2% xylazine: Bayer): ketalar (5% ketamine: Sankyo)=0.5:1 mixed solution, an oxybuprocaine hydrochloride eyedrop solution (Benoxil eyedrop solution 0.4%; Santen Pharmaceutical Co., Ltd.) was administered, and eyeballs were exposed. A mark having a diameter of 6 mm was stamped on a corneal epithelium at a corneal central part using a trephine having a diameter of 6 mm, and a whole corneal epithelial layer within a stamped circumference was scraped using a handy rooter under a stereomicroscope. After scraping, a corneal surface was washed using physiological saline (Otsuka Pharmaceutical Factory Inc.), and eyeballs were returned into the orbit to complete the corneal epithelial scraping treatment.
# A test substance eyedrop solution or an eyedrop solution vehicle was administered to treated eyes at 50 μL per once using a micropipette two times a day on the corneal epithelium scraping day and, on the following day and thereafter, four times a day until completion of the test.
# At the time point at which corneal epithelium scraping of both eyes of all individuals was completed was defined as the test initiation time (0 hour) and, by quantitating the corneal epithelial defect area at 24, 38 and 48 hours thereafter, restoration of a corneal epithelium was assessed. That is, at each time point, 10 μL of a 0.1% fluorescein sodium (Wako Pure Chemical Industries, Ltd.) solution was administered to treated eyes, a photograph of an anterior ocular segment of the animal was immediately taken using a slit lamp equipped with a cobalt filter and thereby, a stained corneal epithelial defect region was recorded. A developed photograph was stored as a digital image in a computer, and an area of the stained corneal epithelial defect part was measured using image analysis software (Image-Pro Plus).
# Regarding the corneal epithelial defect area measured at each time point, a value for each individual was calculated, assuming that its initial value was 100%, and this was adopted as a ratio of the remaining corneal epithelial defect.
# [1] = system: normal human corneal epithelial cell; test: Test Example 6: increase in cell number, normal human corneal epithelial cell, 48 hours (Cell Counting Kit-8); assay type: cell-based; conditions: 10^−8 M, no addition group = 100%, average ± standard deviation, N = 4 to 5
# Protocol: (§1) A normal human corneal epithelial cell (KURABO) was used.
# As the test substance, the following compounds were used. • PPARδ Agonist: GW-501516 (Alexis), GW-0742 (Sigma-Aldrich)
# Only basal medium (no addition group) • [2] Basal medium+GW-501516 (final concentration: 0.01 μM) • [3] Basal medium+GW-0742 (final concentration: 0.01 μM)
# [2] = system: normal human corneal epithelial cell; test: Test Example 5: increase in cell number, normal human corneal epithelial cell, 24 hours (Cell Counting Kit-8); assay type: cell-based; conditions: no addition group = 100%, average ± standard deviation, N = 3 to 4
# Protocol: as §1
# As the test substance, the following compounds were used. PPARδ agonist: L-165041 (Sigma-Aldrich), GW-501516 (Alexis)
# In addition, as a positive control for confirming the cell proliferation promoting effect, a medium in which a mouse-derived epithelial growth factor (mEGF) contained in an HCGS proliferation additive set (KURABO) was added to a basal medium (basal medium+1 ng/mL mEGF) was used.
# This cell suspension was seeded on a fibronectin-coated multiwell plate (24 well, BECTON DICKINSON) so that the cell number became 2×10^4 cells/500 μL/well (since the bottom area is 2 cm^2, the number is 1×10^4 cells/cm^2).
# Further, 24 hours thereafter, the culture medium was exchanged with each 400 μL of the following culture media. • [1] Only basal medium (no addition group) • [2] Basal medium+mEGF (final concentration: 1 ng/mL; positive control group) • [3] Basal medium+L-165041 (final concentration: 0.01 μM and 0.1 μM) • [4] Basal medium+GW-501516 (final concentration: 0.001 μM and 0.01 μM)
# [3] = system: monkey meibomian gland epithelial cell; test: Test Example 8: increase in number of monkey meibomian gland epithelial cells (Cell Counting Kit-8); assay type: cell-based; conditions: 3 x 48 hours; for Cell proliferation (%): no addition group = 100%, average ± standard deviation, N = 5
# Text: For studying the effect of promoting cell proliferation by each test substance, a culture medium prepared by removing the supplement attached to DK-SFM, from DK-SFM, was used as a basal medium, while as a positive control for confirming the cell proliferation promoting effect, a culture medium with the supplement added thereto (basal medium+supplement) was used according to instructions of an DK-SFM preparation protocol. […] In the test, a monkey meibomian gland epithelial cell which had been cultured to subconfluent, suspended in a cell banker (Nippon Zenyaku Kogyo Co., Ltd.), and cryopreserved in liquid nitrogen was used. The cell which had been cryopreserved was thawed, and transferred to a 50 mL centrifuge tube and a 10-fold amount of DK-SFM was added thereto. […] Each 64 μL of this cell suspension was dispensed into each well so that the cell number per bottom area (0.32 cm^2) of the collagen-treated 96-well culture dish for tissue culture became 4×10^4 cells/cm^2. […] After 48 hours from initial culture medium exchange, the culture medium was exchanged with a freshly prepared culture medium of each of [1] to [4]. Further, after 48 hours therefrom, the culture medium was exchanged again with a freshly prepared culture medium of each of [1] to [4].
# [4] = system: rabbit corneal epithelial cell; test: Test Example 2: increase in cell number, cultured rabbit corneal epithelial cell, 120 hours (Cell Counting Kit-8); assay type: cell-based; conditions: no addition group = 100%, average ± standard deviation, N = 5
# Protocol: A male rabbit (Japanese white, weight: about 1.5 kg, […] LABES Co., Ltd.) was used. The experimental animal was used according to the International Guiding Principles for Biomedical Research Involving Animals.
# A rabbit corneal epithelial cell was prepared using the same process as that of (Test example 1).
# As the test substance, the following compounds were used. • PPARδ agonist: L-165041 (Sigma-Aldrich) and GW-501516 (Alexis)
# For studying the effect of promoting cell proliferation by each test substance, a culture medium prepared by removing a mouse-derived epithelial growth factor (mEGF) attached to RCGM2, from RCGM2, was used as a basal medium, while as a positive control for confirming the effect of promoting cell proliferation, a medium with an mEGF added thereto (basal medium+10 ng/mL mEGF) was used according to instructions of an RCGM2 preparation protocol.
# Collagen treatment of the culture dish was performed using the same process as that of (Test Example1).
# In the test, a rabbit corneal epithelial cell which had been cultured to subconfluent in a culture dish having a diameter of 10 cm was used. After the culture medium was removed, the bottom of the culture dish was washed two times using D-PBS, to this was added 1 mL of trypsin-EDTA, this was incubated at 37° C. for 5 minutes and thereby, the cell was peeled from the bottom of the culture dish. After incubation, 9 mL of MEM containing 10% FBS was added to the culture dish to stop the enzymatic reaction, and this was subjected to centrifugation at room temperature and 1,500 rpm for 5 minutes to obtain a corneal epithelial cell layer. To the resulting cell was added an appropriate amount of RCGM2 to a cell concentration of 1×10^5 cells/mL to suspend the cell. Each 64 μL of this cell suspension was dispensed in each well at the cell number per bottom area (0.32 cm^2) of the collagen-treated 96-well culture dish for tissue culture of […]. […] After 24 hours from cell seeding, the culture medium was discarded, and each 100 μL of the following culture media were freshly dispensed into each well of the culture dish. • [1] Only basal medium (no addition group) • [2] Basal medium+mEGF (final concentration: 10 ng/mL; positive control group) • [3] Basal medium+L-165041 (final concentration: 0.1 μM and 1 μM) • [4] Basal medium+GW-501516 (final concentration: 0.01 μM and 0.1 μM)
# The culture supernatant of each well was removed every 48 hours from exchange of the culture medium containing a test substance, and each 100 μL of the freshly prepared culture medium was dispensed into each well.
smiles,measurement,setting,value
"Cc1cc(SCc2sc(-c3ccc(C(F)(F)F)cc3)nc2C)ccc1OCC(=O)O [GW-501516, (2-methyl-4-(((4-methyl-2-(4-(trifluoromethyl)phenyl)-5-thiazolyl)methyl)thio)phenoxy)acetic acid]",ratio (%) of remaining corneal epithelial defect,corneal epithelial wound; 0 hour (initial value),100.0 ± 6.5%
same,ratio of the corneal epithelial defect compared to vehicle (in words),corneal epithelial wound; 24 hours and 38 hours after corneal epithelium scraping,significantly decreased
same,ratio (%) of remaining corneal epithelial defect,"corneal epithelial wound; 24 hours later, 50 μL",25.3 ± 3.1 %
same,ratio (%) of remaining corneal epithelial defect,"corneal epithelial wound; 38 hours later, 50 μL",0.2 ± 0.2 %
same,corneal epithelial defect (in words),"corneal epithelial wound; after 48 hours, all individuals (vehicle group too)",disappeared in all individuals
same,Cell proliferation (%),[1],129.2 ± 7.5%
same,Cell proliferation (%),[2]; 10^−8 M,125.7 ± 2.3%
same,Cell proliferation (%),[2]; 10^−9 M,133.1 ± 3.7%
same,cell proliferation compared to the no addition group (in words),[3]; 10^−7 M,significantly higher than in the no addition group
same,Cell proliferation (%),[3]; 10^−7 M,156.1 ± 18.9%
same,Cell proliferation (%),[3]; 10^−8 M,133.3 ± 7.4%
same,Cell proliferation (%),[4]; 10^−7 M,213.2 ± 34.0%
same,Cell proliferation (%),[4]; 10^−8 M,223.9 ± 24.1%
